Laboratory results: PMC8284453 (Antimicrobial Agents and Chemotherapy, 2021)
≈ marks a conversion by molar mass, not a printed value. Read-outs that look alike come from different tables or passages of the source.

Columns and labels:
[1] = tested on: isogenic strains of E. coli expressing Ambler class A, B, C, and D enzymes; experiment: microbe, parasite or virus in culture; assay type: cell-based, Escherichia coli; conditions: Escherichia coli, read-out: Vector control MIC
[2] = tested on: Enterobacterales expressing class A carbapenemases (KPC); experiment: organism not typed; assay type: cell-based, K. pneumoniae, E. coli, E. cloacae, Klebsiella oxytoca
[3] = tested on: Enterobacterales expressing class C cephalosporinases
[4] = tested on: Enterobacterales expressing class D oxacillinases (OXA-48/48-like); experiment: organism not typed; assay type: cell-based, E. coli, K. pneumoniae
[5] = tested on: strains of Enterobacterales expressing serine β-lactamases; experiment: organism not typed; assay type: cell-based
[6] = 25 isolates, BLI fixed at 4 μg/ml, AMC 2:1

CC1(C)S[C@@H]2[C@H](NC(=O)[C@H](N)c3ccc(O)cc3)C(=O)N2[C@H]1C(=O)O [AMX, amoxicillin]
MIC [1]: 8 µg/mL (≈ 21.9 µM)
MIC ([2]; E. cloacae 847429 (KPC)): ≥ 64 µg/mL
MIC ([2]; E. cloacae OIMGH49 (p99 AmpC, ACT-2, KPC-2, TEM-1)): ≥ 64 µg/mL
MIC ([2]; E. coli 786978 (KPC)): ≥ 64 µg/mL
MIC ([2]; K. pneumoniae 845661 (KPC)): ≥ 64 µg/mL
MIC ([2]; K. pneumoniae 845662 (KPC)): ≥ 64 µg/mL
MIC ([2]; K. pneumoniae 845665 (KPC)): ≥ 64 µg/mL
MIC ([2]; K. pneumoniae 845667 (KPC)): ≥ 64 µg/mL
MIC ([2]; K. pneumoniae 845670 (KPC)): ≥ 64 µg/mL
MIC ([2]; K. pneumoniae 845904 (KPC)): ≥ 64 µg/mL
MIC ([2]; K. pneumoniae 847204 (KPC)): ≥ 64 µg/mL
MIC ([2]; K. pneumoniae 847375 (KPC)): ≥ 64 µg/mL
MIC ([2]; K. pneumoniae 847387 (KPC)): ≥ 64 µg/mL
MIC50 [3, 6]: ≥ 256 µg/mL
MIC90 [3, 6]: ≥ 256 µg/mL
MIC ([3]; C. freundii 134390 (AmpC, TEM-1)): ≥ 256 µg/mL
MIC ([3]; E. aerogenes 110099 (AmpC, SHV-12)): ≥ 256 µg/mL
MIC ([3]; E. aerogenes 111707 (AmpC, TEM-1)): ≥ 256 µg/mL
MIC ([3]; E. aerogenes 111902 (AmpC, TEM-1)): ≥ 256 µg/mL
MIC ([3]; E. coli 128 (AmpC, SHV-12, TEM-1, Toho-2)): 128 µg/mL (≈ 350 µM)
MIC ([3]; E. coli 3102 (AmpC, CTX-M-15, TEM-1)): 32 µg/mL (≈ 87.6 µM)
MIC ([3]; E. coli CH1 (AmpC, CTX-M-15, SHV-1, SHV-5, TEM-1)): ≥ 256 µg/mL
MIC ([3]; E. coli EC469 (AmpC, SHV-12, TEM-1)): 128 µg/mL (≈ 350 µM)
MIC ([3]; E. coli J53 (AmpC, SHV-5, TEM-1)): 128 µg/mL (≈ 350 µM)
MIC ([3]; E. coli SI-P026TC (CMY-2, TEM-1)): ≥ 256 µg/mL
MIC ([3]; E. coli SI-PO26 (AmpC, CMY-2, TEM-1)): ≥ 256 µg/mL
MIC ([3]; K. pneumoniae 129032 (MOX-2, SHV-12, TEM-1)): ≥ 256 µg/mL
MIC ([3]; K. pneumoniae 178279 (AmpC, SHV-12, TEM-1)): ≥ 256 µg/mL
MIC ([3]; K. pneumoniae 212027 (AmpC, FOX-5, TEM-1)): ≥ 256 µg/mL
MIC ([3]; K. pneumoniae 217917 (CMY-2, TEM-1)): ≥ 256 µg/mL
MIC ([3]; K. pneumoniae 301313 (AmpC, SHV-12, TEM-1)): ≥ 256 µg/mL
MIC ([3]; K. pneumoniae 398845 (CMY-2, SHV-12, TEM-1)): ≥ 256 µg/mL
MIC ([3]; K. pneumoniae SI-F100 (CMY-2, SHV-5, TEM-1)): ≥ 256 µg/mL
MIC ([3]; P. mirabilis SI-F014 (AmpC, TEM-72)): ≥ 256 µg/mL
MIC ([3]; S. marcescens 132253 (AmpC, CTX-M-3, OXA-1, SHV-12, TEM-1)): ≥ 256 µg/mL
MIC ([3]; S. marcescens 134434 (AmpC, SHV-12, TEM-1)): ≥ 256 µg/mL
MIC ([3]; S. marcescens 142397 (AmpC, SHV-7, TEM-1)): ≥ 256 µg/mL
MIC ([3]; S. marcescens 156212 (AmpC, SHV-12, TEM-1)): ≥ 256 µg/mL
MIC ([3]; S. marcescens 192478 (AmpC, SHV-12, TEM-1)): ≥ 256 µg/mL
MIC ([3]; S. marcescens 218068 (AmpC, SHV-7, TEM-1)): ≥ 256 µg/mL
MIC50 [4, 6]: ≥ 256 µg/mL
MIC90 [4, 6]: ≥ 256 µg/mL
MIC range [4, 6]: ≥ 256 µg/mL
MIC ([4]; E. coli 664507 (OXA-48)): ≥ 256 µg/mL
MIC ([4]; E. coli 664516 (OXA-48)): ≥ 256 µg/mL
MIC ([4]; E. coli 664520 (OXA-48)): ≥ 256 µg/mL
MIC ([4]; E. coli 664522 (OXA-48)): ≥ 256 µg/mL
MIC ([4]; E. coli 664523 (OXA-48)): ≥ 256 µg/mL
MIC ([4]; E. coli 664524 (OXA-48)): ≥ 256 µg/mL
MIC ([4]; E. coli 664525 (OXA-48)): ≥ 256 µg/mL
MIC ([4]; E. coli 664526 (OXA-48)): ≥ 256 µg/mL
MIC ([4]; E. coli 664528 (OXA-48)): ≥ 256 µg/mL
MIC ([4]; E. coli 787112 (OXA-48)): ≥ 256 µg/mL
MIC ([4]; E. coli SI-422 (OXA-48)): ≥ 256 µg/mL
MIC ([4]; E. coli VER (OXA-48)): ≥ 256 µg/mL
MIC ([4]; K. pneumoniae 6299 (OXA-163)): ≥ 256 µg/mL
MIC ([4]; K. pneumoniae 515746 (OXA-48), first line): ≥ 256 µg/mL
MIC ([4]; K. pneumoniae 515746 (OXA-48), second line): ≥ 256 µg/mL
MIC ([4]; K. pneumoniae 664438 (OXA-48)): ≥ 256 µg/mL
MIC ([4]; K. pneumoniae 664439 (OXA-48)): ≥ 256 µg/mL
MIC ([4]; K. pneumoniae 664509 (OXA-48)): ≥ 256 µg/mL
MIC ([4]; K. pneumoniae 664518 (OXA-48)): ≥ 256 µg/mL
MIC ([4]; K. pneumoniae 722870 (OXA-48)): ≥ 256 µg/mL
MIC ([4]; K. pneumoniae BAH (OXA-204)): ≥ 256 µg/mL
MIC ([4]; K. pneumoniae DEL (OXA-232)): ≥ 256 µg/mL
MIC ([4]; K. pneumoniae DOV (OXA-48)): ≥ 256 µg/mL
MIC ([4]; K. pneumoniae KIRK (OXA-162)): ≥ 256 µg/mL
MIC ([4]; K. pneumoniae SI-C17 (OXA-48)): ≥ 256 µg/mL

CO/N=C(\C(=O)N[C@@H]1C(=O)N2C(C(=O)O)=C(/C=C\c3scnc3C)CS[C@H]12)c1csc(N)n1 [Cefditoren, cefditoren]
MIC50 [5]: 0.5 µg/mL (≈ 0.987 µM)
MIC90 [5]: 2 µg/mL (≈ 3.95 µM)

C=CC1=C(C(=O)O)N2C(=O)[C@@H](NC(=O)/C(=N\OCC(=O)O)c3csc(N)n3)[C@H]2SC1 [Cefixime, cefixime]
MIC50 [5]: 0.5 µg/mL (≈ 1.1 µM)
MIC90 [5]: 2 µg/mL (≈ 4.41 µM)
